{"source": "patent US7632972B2", "about": "“Compounds and methods for treatment of cancer and modulation of programmed cell death for melanoma and other cancer cells” (The Board of Trustees of the University of Illionis, priority 2003, dated 2009)", "type_in_all_cases": "cell-based, human", "key": {"HCT-116": {"test_system": "HCT-116", "assay": "NCI 60 cell line screen (SRB), Colon Cancer", "source_text": "(§1) The operation of this screen utilizes 60 different human tumor cell lines, representing leukemia, melanoma and cancers of the lung, colon, brain, ovary, breast, prostate, and kidney. The aim is to prioritize for further evaluation, synthetic compounds or natural product samples showing selective growth inhibition or cell killing of particular tumor cell lines. This screen is unique in that the complexity of a 60 cell line dose response produced by a given compound results in a biological response pattern which can be utilized in pattern recognition algorithms. Using these algorithms, it is possible to assign a putative mechanism of action to a test compound, or to determine that the response pattern is unique and not similar to that of any of the standard prototype compounds included in the NCl database (see DTP Overview tab). In addition, following characterization of various cellular molecular targets in the 60 cell lines, it may be possible to select compounds most likely to interact with a specific molecular target.\n(§2) The human tumor cell lines of the cancer screening panel are grown in RPMI 1640 medium containing 5% fetal bovine serum and 2 mM L-glutamine. For a typical screening experiment, cells are inoculated into 96 well microtiter plates in 100 μL at plating densities ranging from 5,000 to 40,000 cells/well depending on the doubling time of individual cell lines. After cell inoculation, the microtiter plates are incubated at 37° C., 5% CO2, 95% air and 100% relative humidity for 24 h prior to addition of experimental drugs.\n(§3) After 24 h, two plates of each cell line are fixed in situ with TCA, to represent a measurement of the cell population for each cell line at the time of drug addition (Tz). Experimental drugs are solubilized in dimethyl sulfoxide at 400-fold the desired final maximum test concentration and stored frozen prior to use. At the time of drug addition, an aliquot of frozen concentrate is thawed and diluted to twice the desired final maximum test concentration with complete medium containing 50 μg/ml gentamicin. Additional four, 10-fold or ½ log serial dilutions are made to provide a total of five drug concentrations plus control. Aliquots of 100 μl of these different drug dilutions are added to the appropriate microtiter wells already containing 100 μl of medium, resulting in the required final drug concentrations.\n(§4) Following drug addition, the plates are incubated for an additional 48 h at 37° C., 5% CO2, 95% air, and 100% relative humidity. For adherent cells, the assay is terminated by the addition of cold TCA. Cells are fixed in situ by the gentle addition of 50 μl of cold 50% (w/v) TCA (final concentration, 10% TCA) and incubated for 60 minutes at 4° C. The supernatant is discarded, and the plates are washed five times with tap water and air dried. Sulforhodamine B (SRB) solution (100 μl) at 0.4% (w/v) in 1% acetic acid is added to each well, and plates are incubated for 10 minutes at room temperature. After staining, unbound dye is removed by washing five times with 1% acetic acid and the plates are air dried. Bound stain is subsequently solubilized with 10 mM trizma base, and the absorbance is read on an automated plate reader at a wavelength of 515 nm. For suspension cells, the methodology is the same except that the assay is terminated by fixing settled cells at the bottom of the wells by gently adding 50 μl of 80% TCA (final concentration, 16% TCA). Using the seven absorbance measurements [time zero, (Tz), control growth, (C), and test growth in the presence of drug at the five concentration levels (Ti)], the percentage growth is calculated at each of the drug concentrations levels. Percentage growth inhibition is calculated as: [(Ti−Tz)/(C−Tz)]×100 for concentrations for which Ti>/=Tz [(Ti−Tz)/Tz]×100 for concentrations for which Ti<Tz.\n(§5) Three dose response parameters are calculated for each experimental agent. […]"}, "SW-620": {"test_system": "SW-620", "assay": "NCI 60 cell line screen (SRB), Colon Cancer", "source_text": "as §1, §2, §3, §4, §5"}, "DU-145": {"test_system": "DU-145", "assay": "NCI 60 cell line screen (SRB), Prostate Cancer", "source_text": "as §1, §2, §3, §4, §5"}, "PC-3": {"test_system": "PC-3", "assay": "NCI 60 cell line screen (SRB), Prostate Cancer", "source_text": "as §1, §2, §3, §4, §5"}}}
{"molecule": "COc1cccc(CCNC(=O)CC(c2ccccc2)(c2ccccc2)c2ccccc2)c1", "note": "[Compound Z3]", "values": [{"measurement": "GI50", "setting": "HCT-116; HCT-116", "value": 2.58, "unit": "µM"}, {"measurement": "TGI", "setting": "HCT-116; HCT-116", "value": "2.67E−05"}, {"measurement": "Percent Growth", "setting": "HCT-116; HCT-116, Log10 Concentration −4.0", "value": "−22", "unit": "%"}, {"measurement": "Percent Growth", "setting": "HCT-116; HCT-116, Log10 Concentration −5.0", "value": 16, "unit": "%"}, {"measurement": "Percent Growth", "setting": "HCT-116; HCT-116, Log10 Concentration −6.0", "value": 74, "unit": "%"}, {"measurement": "Percent Growth", "setting": "HCT-116; HCT-116, Log10 Concentration −7.0", "value": 91, "unit": "%"}, {"measurement": "Percent Growth", "setting": "HCT-116; HCT-116, Log10 Concentration −8.0", "value": 97, "unit": "%"}, {"measurement": "CC50", "setting": "HCT-116; HCT-116, read-out: LC50 (the source's name)", "value": "> 100", "unit": "µM"}, {"measurement": "GI50", "setting": "SW-620; SW-620", "value": 85.2, "unit": "µM"}, {"measurement": "TGI", "setting": "SW-620; SW-620", "value": ">1.00E−04"}, {"measurement": "Percent Growth", "setting": "SW-620; SW-620, Log10 Concentration −4.0", "value": 49, "unit": "%"}, {"measurement": "Percent Growth", "setting": "SW-620; SW-620, Log10 Concentration −5.0", "value": 64, "unit": "%"}, {"measurement": "Percent Growth", "setting": "SW-620; SW-620, Log10 Concentration −6.0", "value": 97, "unit": "%"}, {"measurement": "Percent Growth", "setting": "SW-620; SW-620, Log10 Concentration −7.0", "value": 105, "unit": "%"}, {"measurement": "Percent Growth", "setting": "SW-620; SW-620, Log10 Concentration −8.0", "value": 95, "unit": "%"}, {"measurement": "CC50", "setting": "SW-620; SW-620, read-out: LC50 (the source's name)", "value": "> 100", "unit": "µM"}, {"measurement": "GI50", "setting": "DU-145; DU-145", "value": 26.8, "unit": "µM"}, {"measurement": "TGI", "setting": "DU-145; DU-145", "value": ">1.00E−04"}, {"measurement": "Percent Growth", "setting": "DU-145; DU-145, Log10 Concentration −4.0", "value": 31, "unit": "%"}, {"measurement": "Percent Growth", "setting": "DU-145; DU-145, Log10 Concentration −5.0", "value": 64, "unit": "%"}, {"measurement": "Percent Growth", "setting": "DU-145; DU-145, Log10 Concentration −6.0", "value": 88, "unit": "%"}, {"measurement": "Percent Growth", "setting": "DU-145; DU-145, Log10 Concentration −7.0", "value": 93, "unit": "%"}, {"measurement": "Percent Growth", "setting": "DU-145; DU-145, Log10 Concentration −8.0", "value": 88, "unit": "%"}, {"measurement": "CC50", "setting": "DU-145; DU-145, read-out: LC50 (the source's name)", "value": "> 100", "unit": "µM"}, {"measurement": "GI50", "setting": "PC-3; PC-3", "value": 6.12, "unit": "µM"}, {"measurement": "TGI", "setting": "PC-3; PC-3", "value": ">1.00E−04"}, {"measurement": "Percent Growth", "setting": "PC-3; PC-3, Log10 Concentration −4.0", "value": 12, "unit": "%"}, {"measurement": "Percent Growth", "setting": "PC-3; PC-3, Log10 Concentration −5.0", "value": 39, "unit": "%"}, {"measurement": "Percent Growth", "setting": "PC-3; PC-3, Log10 Concentration −6.0", "value": 90, "unit": "%"}, {"measurement": "Percent Growth", "setting": "PC-3; PC-3, Log10 Concentration −7.0", "value": 96, "unit": "%"}, {"measurement": "Percent Growth", "setting": "PC-3; PC-3, Log10 Concentration −8.0", "value": 100, "unit": "%"}, {"measurement": "CC50", "setting": "PC-3; PC-3, read-out: LC50 (the source's name)", "value": "> 100", "unit": "µM"}]}
